Where two headings read alike, the source gives them in different places.
Key:
HEK293 cells [1] = experiment: cells; conditions: Homo sapiens
HepG2 cells [2] = experiment: cells; conditions: Homo sapiens
HepG2 cells [3] = experiment: CellTox Green Cytotoxicity Assay (flor) in HepG2, HepG2[flor]; format: cell-based, human; conditions: HepG2 flor; for EC50: Homo sapiens, given as negative log-scale values;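 on hepg2 flor emax 0: percent activity versus DMSO-only wells with baseline rescaled to 0%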;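 on hepg2 flor emax 40: percent activity versus DMSO-only wells with baseline rescaled to 0%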
HEK293 cells [4] = experiment: cells; conditions: Homo sapiens; remark: listed apart in the source
HEK293 cells [5] = conditions: HEK293 glo
HEK293 cells [6] = conditions: HEK293 flor
[7] = test system: HEK293 and HepG2 cell lines; conditions: any activity in any time point/assay
HepG2 cells [8] = conditions: HepG2 glo
NRF2 = conditions: cited from earlier work

Compound: CC(C)=CCC/C(C)=C/CO [Geraniol]
- EC50 (HEK293 cells [1]; HEK293, read-out: hek293_flor_ec50_0): > 38.3 µM
- EC50 (HEK293 cells [1]; HEK293, read-out: hek293_flor_ec50_8): > 38.3 µM
- EC50 (HEK293 cells [1]; HEK293, read-out: hek293_flor_ec50_16): > 38.3 µM
- EC50 (HEK293 cells [1]; HEK293, read-out: hek293_flor_ec50_24): > 38.3 µM
- EC50 (HEK293 cells [1]; HEK293, read-out: hek293_flor_ec50_32): > 38.3 µM
- EC50 (HEK293 cells [1]; HEK293, read-out: hek293_flor_ec50_40): > 38.3 µM
- EC50 (HepG2 cells [2]; HepG2, read-out: hepg2_glo_ec50_0): > 38.3 µM
- EC50 (HepG2 cells [2]; HepG2, read-out: hepg2_glo_ec50_8): > 38.3 µM
- EC50 (HepG2 cells [2]; HepG2, read-out: hepg2_glo_ec50_16): > 38.3 µM
- EC50 (HepG2 cells [2]; HepG2, read-out: hepg2_glo_ec50_24): > 38.3 µM
- EC50 (HepG2 cells [2]; HepG2, read-out: hepg2_glo_ec50_32): > 38.3 µM
- EC50 (HepG2 cells [2]; HepG2, read-out: hepg2_glo_ec50_40): > 38.3 µM
- hepg2_flor_auc (HepG2 cells [3]): 0
- hepg2_flor_time (HepG2 cells [3]): 48
- hepg2_flor_bin (HepG2 cells [3]; kinetics bin): inactive
- hepg2_flor_emax_0 (HepG2 cells [3]; time point 0): 0
- hepg2_flor_pod_0 (HepG2 cells [3]; time point 0): -4.417
- hepg2_flor_wauc_0 (HepG2 cells [3]; time point 0): 0
- hepg2_flor_emax_8 (HepG2 cells [3]; time point 8): 0
- hepg2_flor_pod_8 (HepG2 cells [3]; time point 8): -4.417
- hepg2_flor_wauc_8 (HepG2 cells [3]; time point 8): 0
- hepg2_flor_emax_16 (HepG2 cells [3]; time point 16): 0
- hepg2_flor_pod_16 (HepG2 cells [3]; time point 16): -4.417
- hepg2_flor_wauc_16 (HepG2 cells [3]; time point 16): 0
- hepg2_flor_emax_24 (HepG2 cells [3]; time point 24): 0
- hepg2_flor_pod_24 (HepG2 cells [3]; time point 24): -4.417
- hepg2_flor_wauc_24 (HepG2 cells [3]; time point 24): 0
- hepg2_flor_emax_32 (HepG2 cells [3]; time point 32): 0
- hepg2_flor_pod_32 (HepG2 cells [3]; time point 32): -4.417
- hepg2_flor_wauc_32 (HepG2 cells [3]; time point 32): 0
- hepg2_flor_emax_40 (HepG2 cells [3]; time point 40): 0
- hepg2_flor_pod_40 (HepG2 cells [3]; time point 40): -4.417
- hepg2_flor_wauc_40 (HepG2 cells [3]; time point 40): 0
- EC50 (HepG2 cells [3]; time point 0, read-out: hepg2_flor_ec50_0): > 38.3 µM
- EC50 (HepG2 cells [3]; time point 8, read-out: hepg2_flor_ec50_8): > 38.3 µM
- EC50 (HepG2 cells [3]; time point 16, read-out: hepg2_flor_ec50_16): > 38.3 µM
- EC50 (HepG2 cells [3]; time point 24, read-out: hepg2_flor_ec50_24): > 38.3 µM
- EC50 (HepG2 cells [3]; time point 32, read-out: hepg2_flor_ec50_32): > 38.3 µM
- EC50 (HepG2 cells [3]; time point 40, read-out: hepg2_flor_ec50_40): > 38.3 µM
- EC50 (HEK293 cells [4]; HEK293, read-out: hek293_glo_ec50_0): > 38.3 µM
- EC50 (HEK293 cells [4]; HEK293, read-out: hek293_glo_ec50_8): > 38.3 µM
- EC50 (HEK293 cells [4]; HEK293, read-out: hek293_glo_ec50_16): > 38.3 µM
- EC50 (HEK293 cells [4]; HEK293, read-out: hek293_glo_ec50_24): > 38.3 µM
- EC50 (HEK293 cells [4]; HEK293, read-out: hek293_glo_ec50_32): > 38.3 µM
- EC50 (HEK293 cells [4]; HEK293, read-out: hek293_glo_ec50_40): > 38.3 µM
- hek293_glo_auc (HEK293 cells [5]): 0
- hek293_glo_time (HEK293 cells [5]): 48
- hek293_glo_bin (HEK293 cells [5]; kinetics bin): inactive
- hek293_glo_emax_0 (HEK293 cells [5]; time point 0): 0
- hek293_glo_pod_0 (HEK293 cells [5]; time point 0): -4.417
- hek293_glo_wauc_0 (HEK293 cells [5]; time point 0): 0
- hek293_glo_emax_8 (HEK293 cells [5]; time point 8): 0
- hek293_glo_pod_8 (HEK293 cells [5]; time point 8): -4.417
- hek293_glo_wauc_8 (HEK293 cells [5]; time point 8): 0
- hek293_glo_emax_16 (HEK293 cells [5]; time point 16): 0
- hek293_glo_pod_16 (HEK293 cells [5]; time point 16): -4.417
- hek293_glo_wauc_16 (HEK293 cells [5]; time point 16): 0
- hek293_glo_emax_24 (HEK293 cells [5]; time point 24): 0
- hek293_glo_pod_24 (HEK293 cells [5]; time point 24): -4.417
- hek293_glo_wauc_24 (HEK293 cells [5]; time point 24): 0
- hek293_glo_emax_32 (HEK293 cells [5]; time point 32): 0
- hek293_glo_pod_32 (HEK293 cells [5]; time point 32): -4.417
- hek293_glo_wauc_32 (HEK293 cells [5]; time point 32): 0
- hek293_glo_emax_40 (HEK293 cells [5]; time point 40): 0
- hek293_glo_pod_40 (HEK293 cells [5]; time point 40): -4.417
- hek293_glo_wauc_40 (HEK293 cells [5]; time point 40): 0
- hek293_flor_auc (HEK293 cells [6]): 0
- hek293_flor_time (HEK293 cells [6]): 48
- hek293_flor_bin (HEK293 cells [6]; kinetics bin): inactive
- hek293_flor_emax_0 (HEK293 cells [6]; time point 0): 0
- hek293_flor_pod_0 (HEK293 cells [6]; time point 0): -4.417
- hek293_flor_wauc_0 (HEK293 cells [6]; time point 0): 0
- hek293_flor_emax_8 (HEK293 cells [6]; time point 8): 0
- hek293_flor_pod_8 (HEK293 cells [6]; time point 8): -4.417
- hek293_flor_wauc_8 (HEK293 cells [6]; time point 8): 0
- hek293_flor_emax_16 (HEK293 cells [6]; time point 16): 0
- hek293_flor_pod_16 (HEK293 cells [6]; time point 16): -4.417
- hek293_flor_wauc_16 (HEK293 cells [6]; time point 16): 0
- hek293_flor_emax_24 (HEK293 cells [6]; time point 24): 0
- hek293_flor_pod_24 (HEK293 cells [6]; time point 24): -4.417
- hek293_flor_wauc_24 (HEK293 cells [6]; time point 24): 0
- hek293_flor_emax_32 (HEK293 cells [6]; time point 32): 0
- hek293_flor_pod_32 (HEK293 cells [6]; time point 32): -4.417
- hek293_flor_wauc_32 (HEK293 cells [6]; time point 32): 0
- hek293_flor_emax_40 (HEK293 cells [6]; time point 40): 0
- hek293_flor_pod_40 (HEK293 cells [6]; time point 40): -4.417
- hek293_flor_wauc_40 (HEK293 cells [6]; time point 40): 0
- information [7]: 0
- hepg2_glo_auc (HepG2 cells [8]): 0
- hepg2_glo_time (HepG2 cells [8]): 48
- hepg2_glo_bin (HepG2 cells [8]; kinetics bin): inactive
- hepg2_glo_emax_0 (HepG2 cells [8]; time point 0): 0
- hepg2_glo_pod_0 (HepG2 cells [8]; time point 0): -4.417
- hepg2_glo_wauc_0 (HepG2 cells [8]; time point 0): 0
- hepg2_glo_emax_8 (HepG2 cells [8]; time point 8): 0
- hepg2_glo_pod_8 (HepG2 cells [8]; time point 8): -4.417
- hepg2_glo_wauc_8 (HepG2 cells [8]; time point 8): 0
- hepg2_glo_emax_16 (HepG2 cells [8]; time point 16): 0
- hepg2_glo_pod_16 (HepG2 cells [8]; time point 16): -4.417
- hepg2_glo_wauc_16 (HepG2 cells [8]; time point 16): 0
- hepg2_glo_emax_24 (HepG2 cells [8]; time point 24): 0
- hepg2_glo_pod_24 (HepG2 cells [8]; time point 24): -4.417
- hepg2_glo_wauc_24 (HepG2 cells [8]; time point 24): 0
- hepg2_glo_emax_32 (HepG2 cells [8]; time point 32): 0
- hepg2_glo_pod_32 (HepG2 cells [8]; time point 32): -4.417
- hepg2_glo_wauc_32 (HepG2 cells [8]; time point 32): 0
- hepg2_glo_emax_40 (HepG2 cells [8]; time point 40): 0
- hepg2_glo_pod_40 (HepG2 cells [8]; time point 40): -4.417
- hepg2_glo_wauc_40 (HepG2 cells [8]; time point 40): 0

Compound: O=C(OCCN1CCOCC1)c1cccnc1Nc1cccc(C(F)(F)F)c1 [Morniflumate, reference compound]
- increase NRF2 TF activity, POD potency (NRF2): 4.54 log10(M)*-1
